Consider four substances from US7057012B1, “PTH functional domain conjugate peptides, derivatives thereof and novel tethered ligand-receptor molecules” (The General Hospital Corporation, priority 1998, dated 2006).

In one assay the test system is hP1R-Tether constructs. Briefly: Q-PTH(1–34) cAMP stimulation of the hP1R-Tether constructs and alanine mutants in COS-7 cells. Type of assay: cell-based, human. The method, then:
(§1) Cell Culture: COS-7 cells were cultured at 37° C. in T-75 flasks ([…] in Dulbecco's modified Eagle's medium (DMEM) supplemented with fetal bovine serum (10%), penicillin G (20 units/ml), streptomycin sulfate (20 μg/ml) and amphotericin B (0.05 μg/ml) in a humidified atmosphere containing 5% CO2. Cells were sub-cultured in 24-well plates and, when confluent, were treated with fresh media and shifted to 33° C. for 12 to 24 h prior to the assay (Bergwitz, C., et al., J. Biol. Chem. 272:28861–28868 (1997); Abell, A., et al., J. Biol. Chem. 271:4518–4527 (1996)).
(§2) PTH Receptor mutagenesis and COS-7 cell expression: The pcDNA-1-based plasmid encoding the intact HPTH-1 receptor (HK-WT in reference (Schipani, E., et al., Endocrinol. 132:2157–2165 (1993)) and herein called hP1R-WT) was used for studies in COS-7 cells. The truncated human PTH-1 receptor (hP1R-de1Nt) (FIG. 18) was constructed from the HK-WT plasmid by oligonucleotide-directed mutagenesis (Kunkel, T. A., Proc. Natl. Acad. Sci. USA 82:488–492 (1985)). […]
(§3) cAMP Stimulation: Stimulation of cells with peptide analogs was performed in 24-well plates. […] The cAMP content of the diluted lysate was determined by radioimmunoassay.

Another assay addresses T1, hP1R-[R^11]-Tether(1–11) (Homo sapiens, UniProt Q03431).
T1 construct: expressed in transfected cells; host or cells: COS-7 cells, transient, DEAE-dextran
T1 sequence (Q03431 with tags, fused parts or gaps): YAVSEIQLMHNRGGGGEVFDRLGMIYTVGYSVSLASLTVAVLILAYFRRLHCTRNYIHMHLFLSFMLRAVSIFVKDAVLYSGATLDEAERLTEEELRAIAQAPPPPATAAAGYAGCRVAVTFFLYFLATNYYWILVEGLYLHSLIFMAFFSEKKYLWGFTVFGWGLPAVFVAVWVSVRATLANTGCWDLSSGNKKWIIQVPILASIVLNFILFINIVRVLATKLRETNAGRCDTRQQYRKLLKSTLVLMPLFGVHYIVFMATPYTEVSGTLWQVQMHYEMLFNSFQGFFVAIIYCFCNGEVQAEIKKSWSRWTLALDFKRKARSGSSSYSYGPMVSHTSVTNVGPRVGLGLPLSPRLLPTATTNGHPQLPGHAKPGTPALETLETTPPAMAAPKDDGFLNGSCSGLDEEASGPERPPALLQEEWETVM
Briefly: Q-PTH(1–34) cAMP dose-response, COS-7 cells expressing hP1R-[R11]-Tether(1–11). The format is cell-based. The method, then:
as §1, §2, §3

In the next assay the target is T2, hP1R-Tether(1–9) (Homo sapiens, UniProt Q03431).
T2 construct: expressed in transfected cells; host or cells: COS-7 cells, transient, DEAE-dextran
T2 sequence (Q03431 with tags, fused parts or gaps): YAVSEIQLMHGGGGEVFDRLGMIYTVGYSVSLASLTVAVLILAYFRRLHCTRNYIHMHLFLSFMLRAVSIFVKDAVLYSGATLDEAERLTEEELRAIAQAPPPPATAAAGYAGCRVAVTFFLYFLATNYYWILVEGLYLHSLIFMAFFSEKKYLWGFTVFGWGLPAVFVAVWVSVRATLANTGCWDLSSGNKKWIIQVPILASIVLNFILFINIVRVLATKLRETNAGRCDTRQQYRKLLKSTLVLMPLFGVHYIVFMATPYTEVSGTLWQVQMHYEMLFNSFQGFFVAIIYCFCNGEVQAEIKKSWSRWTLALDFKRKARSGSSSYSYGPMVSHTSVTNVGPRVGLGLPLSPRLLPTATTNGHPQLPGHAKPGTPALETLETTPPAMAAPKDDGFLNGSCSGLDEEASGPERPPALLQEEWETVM
Briefly: Q-PTH(1–34) cAMP dose-response, COS-7 cells expressing hP1R-Tether(1–9). The format is cell-based. The method, then:
as §1, §2, §3

A further assay addresses T3, hP1r-de1NT (Homo sapiens, UniProt Q03431).
T3 construct: expressed in transfected cells; host or cells: COS-7 cells, transient, DEAE-dextran
T3 sequence (Q03431 with tags, fused parts or gaps): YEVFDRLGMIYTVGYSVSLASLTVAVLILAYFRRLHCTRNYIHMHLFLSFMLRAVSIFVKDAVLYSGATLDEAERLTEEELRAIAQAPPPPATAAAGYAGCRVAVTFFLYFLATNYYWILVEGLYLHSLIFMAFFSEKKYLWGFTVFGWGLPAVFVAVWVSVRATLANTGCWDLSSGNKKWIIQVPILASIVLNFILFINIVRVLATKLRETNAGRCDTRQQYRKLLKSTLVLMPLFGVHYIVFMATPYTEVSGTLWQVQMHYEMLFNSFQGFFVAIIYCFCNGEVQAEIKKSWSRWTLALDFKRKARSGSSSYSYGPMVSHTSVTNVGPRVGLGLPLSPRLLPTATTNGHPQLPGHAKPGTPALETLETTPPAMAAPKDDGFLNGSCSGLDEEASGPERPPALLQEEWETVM
Briefly: Q-PTH(1–34) cAMP dose-response, COS-7 cells expressing hP1R-delNT. The format is cell-based. The procedure: as §1, §2, §3

The next assay concerns rat renal membranes. The following applies: cited from earlier work.
The next assay relates to AC. Conditions: cited from earlier work.
Another assay concerns the target T4, the receptor (Homo sapiens, UniProt Q03431).
T4 sequence (Q03431 27-593): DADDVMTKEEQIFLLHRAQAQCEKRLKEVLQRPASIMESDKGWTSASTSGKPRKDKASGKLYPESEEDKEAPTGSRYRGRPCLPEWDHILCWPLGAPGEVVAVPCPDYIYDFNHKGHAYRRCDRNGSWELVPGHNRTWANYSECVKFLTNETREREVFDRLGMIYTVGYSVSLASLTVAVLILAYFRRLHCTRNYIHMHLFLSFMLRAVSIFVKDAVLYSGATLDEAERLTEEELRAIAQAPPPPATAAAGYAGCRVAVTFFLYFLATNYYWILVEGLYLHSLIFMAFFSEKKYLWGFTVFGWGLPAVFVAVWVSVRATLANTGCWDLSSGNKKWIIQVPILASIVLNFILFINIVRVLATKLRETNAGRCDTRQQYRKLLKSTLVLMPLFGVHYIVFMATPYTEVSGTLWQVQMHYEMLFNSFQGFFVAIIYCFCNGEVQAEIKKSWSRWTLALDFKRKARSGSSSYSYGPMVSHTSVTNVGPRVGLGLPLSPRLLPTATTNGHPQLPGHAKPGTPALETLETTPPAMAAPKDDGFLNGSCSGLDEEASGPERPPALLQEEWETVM
Conditions: cited from earlier work.

In another assay the target is T5, rat PTH-1 receptor (Rattus norvegicus, UniProt P25961).
T5 construct: host or cells: CHO cells
T5 sequence (P25961 27-591): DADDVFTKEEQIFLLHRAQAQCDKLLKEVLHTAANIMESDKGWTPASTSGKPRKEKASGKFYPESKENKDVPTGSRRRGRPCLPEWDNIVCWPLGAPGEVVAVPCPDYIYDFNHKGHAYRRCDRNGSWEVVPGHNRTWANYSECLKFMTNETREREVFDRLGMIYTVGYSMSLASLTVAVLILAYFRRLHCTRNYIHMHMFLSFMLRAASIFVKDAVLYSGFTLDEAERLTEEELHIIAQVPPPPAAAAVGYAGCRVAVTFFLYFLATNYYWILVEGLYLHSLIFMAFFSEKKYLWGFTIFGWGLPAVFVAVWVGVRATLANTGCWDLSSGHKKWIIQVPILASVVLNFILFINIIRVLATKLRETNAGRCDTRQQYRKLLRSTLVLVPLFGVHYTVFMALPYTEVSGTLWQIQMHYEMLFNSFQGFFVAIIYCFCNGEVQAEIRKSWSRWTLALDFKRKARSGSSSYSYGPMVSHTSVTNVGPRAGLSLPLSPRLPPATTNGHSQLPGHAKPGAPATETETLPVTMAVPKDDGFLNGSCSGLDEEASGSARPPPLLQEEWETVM
Conditions: CHO cells expressing the cloned rat PTH-1 receptor; cited from earlier work.

Consider “[Ala^1,3,10,12,Arg^11, Tyr^34]hPTH(1–34)NH2 [Q-PTH(1–34)]”, for which the “dose-response curves for the hP1R-Tether constructs relative to hP1R-de1NT” value in the assay on hP1R-Tether constructs is “parallel and left-shifted”. Further, the “cAMP response of the alanine mutants of hP1R-[R11]-Tether(1–11) to exogenous ligand” value in the assay with hP1R-Tether constructs (alanine scan mutants) is reported as “responded well”. In addition, the “cAMP dose-response relative to the intact wildtype receptor” value on hP1R-[R^11]-Tether(1–11), on hP1R-Tether(1–9) and on hP1r-de1NT was “right-shifted response” each time. Besides, the “maximum cAMP response” value on hP1R-[R^11]-Tether(1–11), at hP1R-Tether(1–9) and on hP1r-de1NT was “capable of producing a maximum cAMP response” in each case.

On to “bPTH(1–12) (AVSEIQFMHNLG; Parathyroid hormone; UniProt P01268 32-43, looked up, fragment) [short NH2-terminal PTH peptide investigated previously]”, for which the “activity in adenylyl cyclase assays” value in the assay on rat renal membranes was “inactive”.

PTH(15–34): the “activation of AC” value with AC was “does not activate AC”. Further, the “binding to the receptor” value in the assay with the receptor is recorded as “binds weakly”.

As to “PTHrP(1–16) (AVSEHQLLHDKGKSIQ; Parathyroid hormone-related protein; UniProt P12272 37-52, looked up, fragment) [short NH2-terminal PTHrP peptide investigated previously]”, the “activity in AC assays” value with rat PTH-1 receptor was “inactive”.
